Assay results as given in publication PMC10291549, “Reaction Behavior of [1,3-Diethyl-4,5-diphenyl-1H-imidazol-2-ylidene] Containing Gold(I/III) Complexes against Ingredients of the Cell Culture Medium and the Meaning on the Potential Use for Cancer Eradication Therapy” (Journal of Medicinal Chemistry, 2023).

Assays:
IGROV1-CSC cells = format: cell-based; conditions: 72 h incubation; mean ± SD of two or three independent experiments; read-out: metabolic activity IC50, IGROV1-CSC
K562 cells = format: cell-based; conditions: 72 h incubation; mean ± SD of two or three independent experiments; read-out: metabolic activity IC50, K562
[1] = system: K562-R cells (Doxorubicin-resistant subclone); format: cell-based; conditions: 72 h incubation; mean ± SD of two or three independent experiments; read-out: metabolic activity IC50, K562-R
MCF-7 cells = format: cell-based, human; conditions: 72 h incubation; mean ± SD of two or three independent experiments; read-out: metabolic activity IC50, MCF-7
A2780 cells = format: cell-based, human; conditions: 72 h incubation; mean ± SD of two or three independent experiments; read-out: metabolic activity IC50, A2780
[2] = HPLC reactivity study with NADPH; format: physicochemical; conditions: 24 h
Procedure: (§1) GSH caused only substitution reactions, without reduction of Au(I) to Au(0). […] Neither reduction to gold(0), release of the NHC ligand, nor coordination to the gold(I) center occurred.
(§2) Experiments in ACN/water: 1.0 mM solutions of the respective complex were prepared in ACN and diluted with HPLC-grade water (50/50, (v/v)) containing the double-concentrated amount of respective amino acid (20 mM), GSH (20 mM), sodium ascorbate (20 mM), or NADPH (20 mM). As a chloride source, an aqueous solution of KCl 0.8 g/L and NaCl 12 g/L was used. In each case, a final complex concentration of 0.5 mM was achieved. The solutions were incubated for 24 h at rt. For the experiments with RPMI 1640, the aqueous phase was replaced by a cell culture medium.
(§3) Samples (20 μL each) were taken at appropriate time points (t = 0 (1.5 min), 0.5, 1, 1.5, 2, 8, 12, and 24 h) and analyzed with a Shimadzu prominence HPLC system. The mobile phase consisted of ACN (HPLC-grade) and water (HPLC-grade) with 0.1% TFA. To achieve a separation of the compounds, gradient elution from (70/30 (v/v) to 90/10 (v/v)) of ACN/water (0.1% trifluoroacetic acid (TFA)) was used with a flow rate of 1 mL/min at an oven temperature of 35 °C. All solvents have been degassed before use. The injection volume was 20 μL, and the detection wavelength was set at 235 nm, to detect the gold complexes and the amino acids in the chromatogram.

[3] = HPLC control experiment with GSH in PBS; format: physicochemical; conditions: 20 equiv GSH in PBS
Procedure: The reduced transformation (compared to the direct reaction with GSH) might be the consequence of the high chloride concentration in the medium. To confirm this assumption, 5 was incubated in a control experiment with 20 equiv of GSH (as described above) in phosphate buffered saline (PBS). At t0h, 65.7% of 12 was formed. The amount increased during 24 h to 68.0% of 12 and 2.1% of 8 appeared (Figure S33).
as §2, §3

[4] = system: A2780cis cells (Cisplatin-resistant); format: cell-based, human; conditions: 72 h incubation; mean ± SD of two or three independent experiments; read-out: metabolic activity IC50, A2780cis
[5] = system: MCF-7TamR cells (Tamoxifen-resistant subline); format: cell-based, human; conditions: 72 h incubation; mean ± SD of two or three independent experiments; read-out: metabolic activity IC50, MCF-7TamR
IGROV1 cells = format: cell-based; conditions: 72 h incubation; mean ± SD of two or three independent experiments; read-out: metabolic activity IC50, IGROV1
[6] = system: A549-R cells (Taxol/Paclitaxel-resistant subclone); format: cell-based; conditions: 72 h incubation; mean ± SD of two or three independent experiments; read-out: metabolic activity IC50, A549-R
A549 cells = format: cell-based; conditions: 72 h incubation; mean ± SD of two or three independent experiments; read-out: metabolic activity IC50, A549
[7] = HPLC degradation study in ACN/RPMI 1640 cell culture medium; conditions: t24h; ACN/RPMI 1640 50/50; 0.5 mM
[8] = HPLC reactivity study with GSH in ACN/water; format: physicochemical; conditions: t0h (1.5 min); 20 equiv GSH; ACN/water 50/50; 0.5 mM
Procedure: All nucleophiles (chloride, amino acids, and GSH) were separately reacted with 5–11 in ACN/water = 50/50 (v/v) mixtures at a complex concentration 0.5 mM. This solvent composition was chosen to prevent precipitation of the complex and the formed degradation products.
Amino acids, as well as GSH, were used in 20-fold excess, as realized at a complex concentration of 10 μM in the cell culture medium. Thereto, the respective complex, dissolved in ACN (1 mM), was combined with the same amount of aqueous solution of the nucleophile (20 mM).
The mixture was then incubated for 24 h at rt and monitored at various time points via HPLC using an RP-C18 column and gradient elution (70/30 (v/v) to 90/10 (v/v)) of ACN/water (0.1% trifluoroacetic acid (TFA)).
as §2, §3

[9] = HPLC reactivity study with sodium ascorbate; format: physicochemical; conditions: 24 h
Procedure: as §1, §2, §3

[10] = HPLC reactivity study in chloride containing ACN/water; format: physicochemical; conditions: t24h; chloride containing ACN/water 50/50; 0.5 mM
[11] = system: SV-80 lung fibroblast cells; assay: Modified MTT assay in noncancerous cells; format: cell-based; conditions: at 10 μM; mean of three independent experiments

Chlorido[1,3-diethyl-4,5-diphenyl-1H-imidazol-2-ylidene]gold(I) [Complex 5]
IC50 (IGROV1-CSC cells): 9.18 ± 1.32 µM | IC50 (K562 cells): > 10 µM | IC50 [1]: > 10 µM | IC50 (MCF-7 cells): 5.76 ± 0.88 µM | IC50 (A2780 cells): 9.45 ± 0.96 µM | ligand scrambling to 8 [2]: 5.6% | formation of 12 ([3]; t0h): 65.7% | formation of 8 ([3]; t24h): 2.1% | formation of 12 ([3]; t24h): 68.0% | IC50 [4]: 4.08 ± 0.8 µM | IC50 [5]: 4.95 ± 0.39 µM | IC50 (IGROV1 cells): 7.53 ± 1.9 µM | IC50 [6]: > 10 µM | IC50 (A549 cells): > 10 µM | formation of 8 [7]: 6.2% | formation of GSH-adduct 12 [7]: 5.1% | substitution to (NHC)Au(I)-GSH adduct 12 [8]: quantitatively | ligand scrambling to 8 [9]: 3.4% | formation of 8 (ligand scrambling / reduction) [10]: 0.9% | metabolic activity (remaining) in SV-80 cells [11]: 64%
